Substitutions are numbered along the chain they refer to. Names may count otherwise. “Also recorded” adds a separate entry of the source.
Columns and labels:
[1] = tested on: biglycan expression; assay: Transcriptional regulation of biglycan (Northern blot); type: cell-based; details: FIG. 2; for effect of TGFβ1 on biglycan expression in the presence of the NKCC inhibitor: TGFβ1-stimulated
Method: (§1) Cells were cultivated in RPMI/5% CO2/10 mM glucose at 37° C., pH 7.4, supplemented with 10% (vol/vol) fetal calf serum (FCS). The cells were grown to 90% confluence and then homogenized in TRIZOL (GIBCO/BRL) (about 0.4×10^6 per sample). Total RNA was prepared in accordance with the manufacturer's instructions. Northern blots were fractionated by electrophoresis through 10 g/l agarose gels with 15 or 20 μg of total RNA with separate control in the presence of 2.4 mol/l formaldehyde. RNA was transferred by vacuum (Appligene Oncor Trans DNA Express Vacuum Blotter, Appligine, Heidelberg, Germany) to positively charged nylon membranes (Boehringer Mannheim, Germany) and crosslinked under ultraviolet light (UV Stratalinker 2400, Stratagene, Heidelberg, Germany). Hybridization was carried out over night with DIG-Easy-Hyb (Boehringer Mannheim) at a probe concentration of 25 μg/l at 50° C. The digoxigenin (DIG)-labeled probes were produced by PCR as described in detail earlier (Waldegger et al. (1997) PNAS 94: 4440-4445). For the autoradiography, the filters were exposed to an X-ray film (Kodak) for an average of 5 min.

[2] = tested on: NKCC; assay: 22Na+ tracer flux (furosemide-inhibitable Na+ uptake) in oocytes expressing NKCC with or without h-sgk; type: cell-based, Xenopus laevis; details: 22Na+ uptake
Method: (§2) Dissection of Xenopus laevis, and the obtaining and treatment of the oocytes has been described in detail earlier (Busch et al. 1992). The oocytes were each injected with 1 ng of cRNA of NKCC, ENaC or MDEG with or without simultaneous injection of h-sgk. It was possible to carry out two-electrode voltage and current clamp experiments 2-8 days after the injection. Na^+ influx which could be inhibited by furosemide through the NKCC was measured by the ^22Na^+ uptake, which was determined with a scintillation counter, into the oocytes. Na^+ currents (ENaC) were filtered at 10 Hz and recorded with a pen recorder. The experiments were normally carried out on the second day after cRNA injection. The bath solution contained: 96 mM NaCl, 2 mM KCl, 1.8 mM CaCl2, 1 mM MgCl2 and 5 mM HEPES at pH 7.5 and the holding potential was −50 mV. The pH was adjusted by titration with HCl or NaOH in all the experiments. The flow rate of the bath liquid was set at 20 ml/min, which ensured a complete change of solution in the measurement chamber within 10-15 s. All the data are stated in the form of arithmetic means ±SEM.

[3] = biological target: T1, h-sgk (Homo sapiens, UniProt O00141); assay: Two-electrode voltage clamp of ENaC current in oocytes coexpressing h-sgk; type: cell-based; details: for activation of ENaC (Na+ channel current) by h-sgk: oocytes coexpressing ENaC and h-sgk, treated with kinase inhibitor, FIG. 4
T1 construct: expressed in transfected cells; host or cells: Xenopus laevis oocytes (cRNA injection)
T1 sequence (O00141 1-431): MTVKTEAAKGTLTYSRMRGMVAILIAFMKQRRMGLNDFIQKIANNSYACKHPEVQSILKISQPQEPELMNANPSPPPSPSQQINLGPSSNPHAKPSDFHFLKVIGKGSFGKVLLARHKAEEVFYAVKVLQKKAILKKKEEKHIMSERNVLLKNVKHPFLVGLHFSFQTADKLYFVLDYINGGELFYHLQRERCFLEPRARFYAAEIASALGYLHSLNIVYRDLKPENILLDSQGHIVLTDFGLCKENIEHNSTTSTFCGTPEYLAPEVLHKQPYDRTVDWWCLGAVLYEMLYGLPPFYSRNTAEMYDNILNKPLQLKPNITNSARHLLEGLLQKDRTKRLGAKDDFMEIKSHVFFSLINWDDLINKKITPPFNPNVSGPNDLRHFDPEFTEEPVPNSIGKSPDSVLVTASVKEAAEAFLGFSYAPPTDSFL
Method: as §2

[4] = tested on: h-sgk expression; assay: Transcriptional regulation of h-sgk (Northern blot); type: cell-based; details: FIG. 1; TGFβ1 effect shown after 0.5 to 6 h
Method: as §1

With `CCCCNc1cc(C(=O)O)cc(S(N)(=O)=O)c1Oc1ccccc1` [bumetanide] the “effect of TGFβ1 on biglycan expression in the presence of the NKCC inhibitor” value [1] was “almost completely suppressed”.

`NS(=O)(=O)c1cc(C(=O)O)c(NCc2ccco2)cc1Cl` [furosemide] was tested, and the “Na+ influx in NKCC-injected oocytes” value ([2]; NKCC alone, without h-sgk, FIG. 3 top) was “not inhibited”, the “increase in Na+ influx on coexpression of h-sgk with NKCC” value ([2]; oocytes coexpressing h-sgk and NKCC, FIG. 3 below) was “completely suppressed” and the “effect of TGFβ1 on biglycan expression in the presence of the NKCC inhibitor” value [1] was “completely suppressed”. The “increased expression of the matrix proteins in fibroblasts” value ([1]; fibroblasts) was “can be suppressed”.

`CN[C@@H]1C[C@H]2O[C@@](C)([C@@H]1OC)n1c3ccccc3c3c4c(c5c6ccccc6n2c5c31)C(=O)NC4` [staurosporine] was tested, and the “activation of ENaC (Na+ channel current) by h-sgk” value [3] was “suppresses; also recorded: completely to suppress”.

For `CCCCCCCCCC(=O)O[C@@H]1[C@@H](C)[C@@]2(O)[C@@H](C=C(CO)C[C@@]3(O)C(=O)C(C)=C[C@@H]23)[C@@H]2C(C)(C)[C@]12OC(=O)CCCCCCCCC` [PDD, 4-alpha-phorbol 12,13-didecanoate], the expression of h-sgk [4] was “likewise stimulate”.

With `COc1ccc2c(c[n+](C)c3c4cc5c(cc4ccc23)OCO5)c1OC` [chelerythrine] the “activation of ENaC (Na+ channel current) by h-sgk” value [3] was “suppresses; also recorded: completely to suppress”.

With TGFβ1: tumor growth factor β1 the expression of h-sgk [4] was “stimulated” and the expression of biglycan [1] was “stimulated”.

For `C[C@H](CCC(=O)O)C[C@H](C)C[C@H](C)C(=O)/C=C(\O)[C@H](C)C[C@H](C)C/C=C/[C@@H](C)[C@@H](O)[C@@H](C)[C@@H](O)C[C@@H]1CC[C@@](C)([C@H]2CC[C@@](C)([C@@H](C)O)O2)O1` [ionomycin], the expression of h-sgk [4] was “likewise stimulate”.

B1: trans-dominant inhibitory kinase: h-sgk modified by mutation: lysine in position 127 replaced by arginine (K127R); suppresses the catalytic function (protein, UniProt O00141 1-431, looked up, variant K127R)
Serine/threonine-protein …: T1 sequence (O00141 1-431) with K127R
With B1 the “stimulating effect of h-sgk coexpression on the ENaC-mediated Na+ current” value ([3]; coexpression of the trans-dominant inhibitory kinase in oocytes, FIG. 5) was “can be suppressed”.
